# In patent publication US12577216B2, “Triazine benzoate compound and application thereof” (SHENYANG SINOCHEM AGROCHEMICALS R&D CO., LTD., priority 2020, dated 2026):
# How the values were obtained:
# zinnia = assay: Determination of herbicidal activity, post-emergence stem and leaf spray, zinnia; assay type: in vivo; conditions: for control effects on zinnia: 150 g a.i./hm^2, after emergence, visual 0-100%; for Herbicidal activity for Zinnia, control effect %: Table 3 parallel comparison
# Experimental: (§1) Seeds of broadleaf weeds (zinnia and piemarker) or grassy weeds (green bristlegrass and barnyard grass) were respectively sown in a paper cup having a diameter of 7 cm and containing nutrient soil; after sowing, the seeds were covered with 1 cm of soil; the soil was pressed and watered, and then the seeds were cultivated in a greenhouse according to a conventional method; and stems and leaves were sprayed after 2-3 leaf stage of the weeds.
# (§2) After the original medicinal acetone was dissolved, the test requires to use 1‰ of Tween 80 to stand in running water to prepare the solution to be tested with a required concentration. According to the design dose of the test, spray treatment was carried out on a track-type crop sprayer (designed and produced by British Engineer Research Ltd.) (spray pressure is 1.95 kg/cm^2, spray volume is 500 L/hm^2 and track speed is 1.48 km/h). The test was repeated for three times. The test material was treated and then placed in an operation hall. The medicinal liquid was naturally dried in the shade, and then was placed in a greenhouse and managed according to the conventional method. The response of the weeds to the drug was observed and recorded. After treatment, the control effects of the test drug on the weeds were visually inspected regularly, expressed by 0-100%. “0” represents no control effect and “100%” represents complete killing.
# green bristlegrass = assay: Determination of herbicidal activity, post-emergence stem and leaf spray, green bristlegrass; assay type: in vivo; conditions: for Herbicidal activity for Green Bristlegrass, control effect %: Table 5 parallel comparison
# Experimental: as §1, §2
# piemarker = assay: Determination of herbicidal activity, post-emergence stem and leaf spray, piemarker; assay type: in vivo; conditions: for Herbicidal activity for Piemarker, control effect %: Table 4 parallel comparison; for pest or weed control at 150 g/ha: post-emergence, read-out: control effects on piemarker; for pest or weed control at 150 g/ha / control effects on piemarker: 150 g a.i./hm^2, after emergence, visual 0-100%
# Experimental: as §1, §2
# barnyard grass = assay: Determination of herbicidal activity, post-emergence stem and leaf spray, barnyard grass; assay type: in vivo; conditions: for Herbicidal activity for Barnyard Grass, control effect %: Table 6 parallel comparison
# Experimental: as §1, §2
# [1] = test system: Commelina benghalensis Linn.; conditions: postemergence application, doses of 7.81 and 3.91 g/ha; cited from earlier work
# Setaria faberi = conditions: postemergence application, doses of 7.81 and 3.91 g/ha; cited from earlier work
# Amaranthus retroflexus = conditions: postemergence application, doses of 7.81 and 3.91 g/ha; cited from earlier work
# Chenopodium album L. = conditions: postemergence application, doses of 7.81 and 3.91 g/ha; cited from earlier work
# [2] = Table 2, 9.375 g a.i./hm^2, after emergence
# [3] = Table 2, 37.5 g a.i./hm^2, after emergence
# [4] = 2.34 g a.i./hm^2, after emergence
# [5] = 9.375 g a.i./hm^2, after emergence
# [6] = 37.5 g a.i./hm^2, after emergence
Structure (SMILES),control effects on zinnia (zinnia) [%],"Zinnia, control effect % (zinnia; [2]) [%]","Zinnia, control effect % (zinnia; [3]) [%]","Herbicidal activity for Zinnia, control effect % (zinnia; [4]) [%]","Herbicidal activity for Zinnia, control effect % (zinnia; [5]) [%]","Green Bristlegrass, control effect % (green bristlegrass; [2]) [%]","Green Bristlegrass, control effect % (green bristlegrass; [3]) [%]","Herbicidal activity for Green Bristlegrass, control effect % (green bristlegrass; [5]) [%]","Herbicidal activity for Green Bristlegrass, control effect % (green bristlegrass; [6]) [%]","Piemarker, control effect % (piemarker; [2]) [%]","Piemarker, control effect % (piemarker; [3]) [%]","Herbicidal activity for Piemarker, control effect % (piemarker; [4]) [%]","Herbicidal activity for Piemarker, control effect % (piemarker; [5]) [%]","Barnyard Grass, control effect % (barnyard grass; [2]) [%]","Barnyard Grass, control effect % (barnyard grass; [3]) [%]","Herbicidal activity for Barnyard Grass, control effect % (barnyard grass; [5]) [%]","Herbicidal activity for Barnyard Grass, control effect % (barnyard grass; [6]) [%]",control effects on piemarker (piemarker) [%],further results
"CCOC(=O)C(C)OC(=O)c1cc(-n2c(=O)n(C)c(=S)n(C)c2=O)c(F)cc1Cl (racemic) [Compound 248, 2-chloro-4-fluoro-5-(3,5-dimethyl-2,6-dioxo-4-thio-1,3,5-triazine-1-yl) benzoic acid (1-ethoxycarbonyl)ethyl ester]",100,60,90,95,100,70,95,60,85,90,100,90,100,95,100,90,100,,pest or weed control at 150 g/ha (piemarker): 100%
Cn1c(=S)n(C)c(=O)n(-c2cc(C(=O)OCC(=O)OCCCl)c(Cl)cc2F)c1=O [Compound 221],100,,,85,100,,,80,90,,,85,100,,,98,100,100,
Cn1c(=S)n(C)c(=O)n(-c2cc(C(=O)OCC(=O)OCCCCCl)c(Cl)cc2F)c1=O [Compound 225],100,,,95,100,,,80,90,,,85,100,,,95,100,100,
"Cn1c(=S)n(C)c(=O)n(-c2cc(C(=O)OCC(=O)OCC3CC3)c(Cl)cc2F)c1=O [Compound 241, 2-chloro-4-fluoro-5-(3,5-dimethyl-2,6-dioxo-4-thio-1,3,5-triazine-1-yl)benzoic acid (cyclopropylmethoxycarbonyl) methyl ester]",100,,,100,100,,,80,100,,,98,100,,,95,98,,pest or weed control at 150 g/ha (piemarker): 100%
Cn1c(=S)n(C)c(=O)n(-c2cc(C(=O)OCC(=O)OCC3CO3)c(Cl)cc2F)c1=O (centres unmarked) [Compound 245],100,,,95,100,,,70,90,,,,,,,95,98,100,
Cn1c(=S)n(C)c(=O)n(-c2cc(C(=O)OCC(=O)OCC3CCCO3)c(Cl)cc2F)c1=O (centres unmarked) [Compound 246],100,,,95,95,,,80,90,,,,,,,95,98,100,
CCOC(=O)[C@@H](C)OC(=O)c1cc(-n2c(=O)n(C)c(=S)n(C)c2=O)c(F)cc1Cl [Compound 249],100,50,70,,,35,80,,,65,100,,,30,55,,,100,
CCOC(=O)[C@H](C)OC(=O)c1cc(-n2c(=O)n(C)c(=S)n(C)c2=O)c(F)cc1Cl [Compound 250],100,70,98,80,95,100,100,70,90,98,100,85,100,50,90,90,100,100,
CC#CCOC(=O)C(C)OC(=O)c1cc(-n2c(=O)n(C)c(=S)n(C)c2=O)c(F)cc1Cl (centres unmarked) [Compound 287],100,,,80,100,,,50,70,,,,,,,,,100,
CC(OC(=O)c1cc(-n2c(=O)n(C)c(=S)n(C)c2=O)c(F)cc1Cl)C(=O)OCC1CC1 (centres unmarked) [Compound 291],100,,,85,100,,,,,,,85,100,,,90,100,100,
"C=CCOC(=O)c1cc(-n2c(=O)n(C)c(=S)n(C)c2=O)c(F)cc1Cl [KC1, reference compound]",,50,60,,50,10,25,10,25,55,100,,55,0,25,0,25,,control of Commelina benghalensis Linn. [1]: effectively control; control of Setaria faberi (Setaria faberi): effectively control; control of Amaranthus retroflexus (Amaranthus retroflexus): effectively control; control of Chenopodium album L. (Chenopodium album L.): effectively control
"C=CCOC(=O)[C@@H](C)Oc1cc(-n2c(=O)n(C)c(=S)n(C)c2=O)c(F)cc1Cl [KC2, reference compound]",,,,,,,,20,50,,,,,,,75,90,,
